Earlier results on 2 substances are cited in patent US20180008711A1, “TRIPLE ANTIBIOTIC CATIONIC OINTMENT” (priority 2015, published 2018).

One series concerns bacteria. The settings on record: very low concentrations.
Series [1] deals with Aspergillus brasiliensis (mold).
Series [2] has as its system Staphylococcus aureus (also the methicillin-resistant type, MRSA).
Series [3] concerns vancomycin-resistant enterococci.
Series [4] deals with Klebsiella pneumoniae (carbapenem-resistant enterobacteriaceae).

Polyaminopropylbiguanide [PAPB]: in the series on fungi, the fungicidal entry is on record as “fungicidal”. Moreover, in the series with bacteria, the bactericidal concentration is 10 mg/1.
Consider polyhexamethylenebiguanide [PHMB], for which, in series [1], the “effective against Aspergillus brasiliensis” value is “effective”. The “effective against Pseudomonas aeruginosa” value in the series with Pseudomonas aeruginosa was “effective”. Further, in the series with Candida albicans (yeast), the “effective against Candida albicans” value was “effective”. Moreover, the “effective against Escherichia coli” value with Escherichia coli is given as “effective”. Besides, the “effective against Staphylococcus aureus” value in series [2] is given as “effective”. For the same substance, the “effective against vancomycin-resistant enterococci” value in series [3] is reported as “effective”. In addition, in series [4], the “effective against Klebsiella pneumoniae” value was “effective”.
